This passage reports IC50 results from US8993596B2, “4-(azacycloalkyl)benzene-1,3-diol compounds as tyrosinase inhibitors, process for the preparation thereof and use thereof in human medicine and in cosmetics” (Galderma Research & Development, priority 2008, dated 2015).

Molecules are shown by their SMILES. Bounds are passed on as bounds.

The test system of assay [1] is MNT1 human melanoma cells. Kind of assay: Cell toxicity (3H-leucine incorporation) in the melanogenesis assay. The following applies: MNT-1, 24 h at 37° C. Type of assay: cell-based. As for the experimental part:
(§1) The inhibition of melanogenesis is measured in MNT1 human melanoma cells according to a protocol adapted from Reigner et al., Cell Mol Biol (1999) 45: 969-980. The assay is based on the concomitant incorporation of 2 radiolabelled tracers: ^14C-thiouracil is incorporated into the neosynthesized melanin and reflects melanogenesis, whereas ^3H-leucine is incorporated into the proteins and reflects cell viability and, consequently, the toxicity of the compounds tested.
(§2) The MNT1 cells are seeded into 96-well plates in the presence of the test compounds and of the radioisotopes. After incubation for 24 h at 37° C., the cells are washed and the amount of the 2 radioisotopes is measured. The test compounds are evaluated in terms of dose-response so as to calculate an IC50 for inhibition of melanogenesis on the basis of the ^14C incorporation which is standardized through the ^3H incorporation. An IC50 for cell toxicity is also calculated on the basis of the ^3H incorporation.

In assay [2] the test system is MNT1 human melanoma cells. Description: Melanogenesis inhibition assay (14C-thiouracil incorporation). The assay is classed as cell-based. The following applies: MNT-1, 24 h at 37° C., 14C incorporation standardized through 3H incorporation. How it is done: as §1, §2
For assay [3], the target named is tyrosinase (Mus musculus (Mouse), UniProt P11344). Kind of assay: Tyrosinase activity inhibition assay (B16F1 cell lysate). Type of assay: biochemical, murine. The following applies: lysate of B16F1 cells, L-tyrosine substrate, MBTH, reading at 520 nm after 6 hours at 37° C.; read-out: Tyrosine hydroxylase/ Dopa oxidase IC50. How it is done: The activity of the inhibitors is measured using a lysate of B16F1 cells (murine melanoma line). In the presence of the L-tyrosine substrate, the tyrosinase present in these cells catalyses the hydroxylation of L-tyrosine to give L-DOPA and then the oxidation of the L-DOPA to give dopaquinone. In the presence of MBTH (3-methyl-2-benzothiazolinone hydrazone), the dopaquinone is trapped so as to form a pink complex which absorbs at 520 nm.
tyrosinase, sequence (P11344 19-533): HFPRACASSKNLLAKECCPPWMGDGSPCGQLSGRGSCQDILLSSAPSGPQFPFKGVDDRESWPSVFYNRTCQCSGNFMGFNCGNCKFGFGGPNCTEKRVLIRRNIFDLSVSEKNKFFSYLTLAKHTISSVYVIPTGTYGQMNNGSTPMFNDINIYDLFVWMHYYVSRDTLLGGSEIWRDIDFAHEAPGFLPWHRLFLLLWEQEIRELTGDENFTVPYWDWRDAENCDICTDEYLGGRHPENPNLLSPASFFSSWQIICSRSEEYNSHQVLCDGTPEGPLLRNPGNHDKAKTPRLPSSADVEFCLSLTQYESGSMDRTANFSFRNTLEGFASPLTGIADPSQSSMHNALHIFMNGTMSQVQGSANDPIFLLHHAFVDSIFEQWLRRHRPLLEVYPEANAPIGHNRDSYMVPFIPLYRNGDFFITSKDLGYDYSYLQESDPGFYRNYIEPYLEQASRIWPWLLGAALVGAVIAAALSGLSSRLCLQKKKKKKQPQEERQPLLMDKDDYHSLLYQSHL
The B16F1 cells are cultured in DMEM medium+10% foetal calf serum+10^−9 M α-MSH for 4 days at 37° C. under 7% CO2. They are treated with trypsin, washed in PBS, counted and pelleted. The pellet is taken up at 10^7 cells/ml in lysis buffer (10 mM sodium phosphate, pH 6.8-1% Igepal) and the suspension is treated with ultrasound for 10 seconds. After centrifugation for 30 minutes at 4000 rpm, the supernatant obtained constitutes the cell lysate used as tyrosinase source in the enzymatic assay.
The assays are carried out in duplicate in 384-well plates in a total volume of 50 μl. […]
The plate is incubated at 37° C. and a spectrophotometric reading is carried out at 520 nm after 6 hours of incubation. In order to avoid any possible absorption of the products, the system uses corrected absorbance (absorbance at time 6 h—absorbance at time zero). […]

For `CCCCc1ccc(O)cc1O` [4-Butylresorcinol (Rucinol), 4-Butylresorcinol, reference compound], the IC50 is 55000 nM in assay [1] and 15000 nM in assay [2].
As for `C[C@H](NC(=O)N1CCC(c2ccc(O)cc2O)CC1)c1ccccc1` [Compound 24, 4-(2,4-dihydroxyphenyl)piperidine-1-carboxylic acid ((S)-1-phenylethyl)amide], the IC50 is 150 nM in assay [3], greater than 999000 nM in assay [1] and 300 nM in assay [2].
In the same order, the values of `O=C([C@@H](O)c1ccccc1)N1CCC(c2ccc(O)cc2O)CC1` [Compound 48, (S)-1-[4-(2,4-dihydroxyphenyl)piperidin-1-yl]-2-hydroxy-2-phenylethanone] are 200 nM, greater than 999000 nM and 700 nM.
